The text below walks through data of patent US9958436B2, “Determination of cell chirality” (THE TRUSTEES OF COLUMBIA UNIVERSITY IN THE CITY OF NEW YORK, priority 2011, dated 2018).

Experiment [1] relates to C2C12 cells. The experiment can be described thus: Effects of culture conditions (substrate protein coating, calcium chelator) on cell chirality. In kind it is cell-based, mouse. To be noted: count of rings. Here is the method:
An adhesive SAM octadecanethiol (Sigma) was transferred onto the gold-coated (150 Å in thickness) glass slide with the PDMS stamp (see e.g., FIG. 1) (L. Q. Wan et al., Integr Biol (Camb) 2, 346 (Aug. 10, 2010)). The slide was then immersed in a non-adhesive ethylene glycol-terminated SAM (HS-(CH2)11-EG3, Prochimia, Poland) for 3 hours. Finally, patterned surfaces were washed with ethanol and coated with 10 μg/ml fibronectin (Sigma) for 30 minutes.
(§1) Cells were maintained in tissue flasks with culture media specified in TABLE 2. After reaching 70% confluency, cells were trypsinized and seeded onto protein-coated patterned surfaces. Once the cells attached, extra cells were washed off with fresh medium. At this time drugs were added into the culture medium if necessary. Phase contrast images were taken after overnight incubation at 37° C. and 5% CO2 when cells reached confluency on the ring patterns.
(§2) High-resolution phase contrast images of live patterned cells were taken at a resolution of ˜0.645 μm/pixel, and analyzed using a custom-written code in MatLab (MathWorks, Natick, Mass.), based on the automated detection of intensity gradient and circular statistics (W. J. Karlon et al., Ann Biomed Eng 27, 712 (November-December, 1999)). In this algorithm, the intensity gradient was determined pixel by pixel with a Gaussian differential filter. In each sub-region of the image, the dominant local direction was determined using an accumulator scheme, in which the orientation of each pixel follows a von Mises distribution, a circular analogue of the linear normal distribution. Subsequently, the orientation in each sub-region was converted into an angle bias based on its deviation from the circumferential direction (see e.g., FIG. 2C). Mean angle and standard deviation of LR asymmetry were calculated for all sub-regions, using circular statistics (N. I. Fish, Statistical Analysis of Circular Data. (Cambridge University Press, Cambridge, UK, 1993)). […] The sub-region size was therefore set to 20 by 20 pixels (i.e., 13 by 13 μm).
(§3) Cell chirality on ring patterns (i.e., clockwise or counterclockwise alignment) was determined from calculated biased angles in local regions with one sample test for the mean angle, analogous to the one sample t-test in linear statistics (N. I. Fish, Statistical Analysis of Circular Data. (Cambridge University Press, Cambridge, UK, 1993)).
The geometric boundaries determined organelle positioning (i.e., x-axis), with centrosomes (bright green, see e.g., FIG. 4B) and Golgi apparatus (red, see e.g., FIG. 4C) being positioned closer to the boundaries than the cell nucleus (blue) (R. A. Desai, L. Gao, S. Raghavan, W. F. Liu, C. S. Chen, J Cell Sci 122, 905 (Apr. 1, 2009)), independent of the gravitational direction. In addition, cell chirality was maintained on patterns with different surface chemistry, and after the disruption of cadherin function (see e.g., FIG. 1, TABLE 6, TABLE 7).

Experiment [2] concerns C2C12 cells. The experiment can be described thus: Cell chirality (alignment) on micropatterned rings, drug treatment, C2C12. It is filed as cell-based, mouse. To be noted: for CCW: counter-clockwise alignment / CW: clockwise alignment / N/S: not significantly biased to CW or CCW: C2C12 on ring patterns, count of rings. The protocol:
as §1
(§4) To examine the role of actin in left-right (LR) asymmetry, cells were tested with 20-500 nM Latrunculin A, 0.05-1.0 μg/ml Cytochalasin D, and 1-100 nM Jasplakinolide. Latrunculin A inhibits actin polymerization by forming a 1:1 molar complex with G-actin, thereby inhibiting its ability to polymerize into F-actin (M. Coue, S. L. Brenner, I. Spector, E. D. Korn, FEBS Lett 213, 316 (Mar. 23, 1987)). Cytochalasin D inhibits actin polymerization by binding to the growing ends of F-actin chains and thus preventing the attachment and addition of G-actin monomers (J. A. Cooper, J Cell Biol 105, 1473 (October, 1987)). Jasplakinolide is known to bind to and stabilize actin filaments in vitro (M. R. Bubb, I. Spector, B. B. Beyer, K. M. Fosen, J Biol Chem 275, 5163 (Feb. 18, 2000)).
(§5) To examine the role of microtubules in LR asymmetry, 0.2-2 μM Nocodazole, and 0.3-30 nM Taxol were used. Nocodazole suppresses microtubule dynamics by destabilizing and disassembling microtubules (J. A. Cooper, J Cell Biol 105, 1473 (October, 1987)). Taxol inhibits the microtubule depolymerization and stabilizes microtubules (W. B. Derry, L. Wilson, M. A. Jordan, Biochemistry 34, 2203 (Feb. 21, 1995)).
To examine the role of the actomyosin motor, cells were tested with […], […], and 0.5-10 […]. Y-27632 works as a selective inhibitor to prevent the phosphorylation of the myosin regulatory light chain (T. Ishizaki et al., Mol Pharmacol 57, 976 (May, 2000)). ML-7 acts as a selective inhibitor of the myosin light chain kinase (M. Isemura, T. Mita, K. Satoh, K. Narumi, M. Motomiya, Cell Biol Int Rep 15, 965 (October, 1991)). Blebbistatin forms a low actin affinity complex through binding to myosin heads, causing the inhibition of nonmuscle myosin II ATPase activity (M. Kovacs, J. Toth, C. Hetenyi, A. Malnasi-Csizmadia, J. R. Sellers, J Biol Chem 279, 35557 (Aug. 20, 2004)).
as §2, §3

The subject of a further experiment is hUVEC cells. The experiment can be described thus: Cell chirality (alignment) on micropatterned rings, drug treatment, hUVEC. It is filed as cell-based, human. To be noted: hUVEC on ring patterns, count of rings. The protocol:
as §1, §4, §5, §2, §3

Where [3] appears, read: calcium chelator added to culture, 0.5 mM.
The mark [4] stands for this setting: calcium chelator added to culture, 2 mM.
Setting [5] is: substrate protein coating of the pattern.

For `O=C(O)CN(CCOCCOCCN(CC(=O)O)CC(=O)O)CC(=O)O` [EGTA], in the experiment on C2C12 cells [1] (setting [3]), the “CCW: counter-clockwise alignment” value is given as 24, the “CW: clockwise alignment” value is on record as 0 and the “N/S: not significantly biased to CW or CCW” value (“N/S: not significantly biased” below) is given as 2. For the same compound, in the experiment on C2C12 cells [1] (setting [4]), the “CCW: counter-clockwise alignment” value is 12, the “CW: clockwise alignment” value amounted to 1 and the “N/S: not significantly biased” value amounted to 3.
On to Fibronectin, for which, in the experiment on C2C12 cells [1] (setting [5]), the “CCW: counter-clockwise alignment” value is 32, the “CW: clockwise alignment” value is 1 and the “N/S: not significantly biased” value worked out at 4.
For the compound `C/C1=C\[C@H](C)C[C@H](C)OC(=O)C[C@H](c2ccc(O)cc2)NC(=O)[C@@H](Cc2c(Br)[nH]c3ccccc23)N(C)C(=O)[C@H](C)NC(=O)[C@@H](C)C1` [Jasplakinolide], the “CCW: counter-clockwise alignment” value stood at 34 with C2C12 cells [2] (drug 1 nM); 18 in the experiment on C2C12 cells [2] (drug 3 nM); 14 in the experiment on C2C12 cells [2] (drug 10 nM); 0 in the experiment with C2C12 cells [2] (drug 30 nM); 0 in the experiment with C2C12 cells [2] (drug 100 nM); 1 in the experiment on hUVEC cells (drug 1 nM). Besides, the “CCW: counter-clockwise alignment” value in the experiment on hUVEC cells (drug 3 nM) came out at 2; in the experiment with hUVEC cells (drug 10 nM) it was 5; in the experiment with hUVEC cells (drug 30 nM) it was 0; with hUVEC cells (drug 100 nM), 0. Also, the “CW: clockwise alignment” value is listed as 2 in the experiment on C2C12 cells [2] (drug 1 nM); 3 in the experiment with C2C12 cells [2] (drug 3 nM); 7 with C2C12 cells [2] (drug 10 nM); 18 in the experiment on C2C12 cells [2] (drug 30 nM); 7 in the experiment with C2C12 cells [2] (drug 100 nM); 32 with hUVEC cells (drug 1 nM). The “CW: clockwise alignment” value with hUVEC cells (drug 3 nM) is given as 22; in the experiment with hUVEC cells (drug 10 nM), 22; in the experiment on hUVEC cells (drug 30 nM) it was 5; in the experiment with hUVEC cells (drug 100 nM) it was 1. For the same compound, the “N/S: not significantly biased” value with C2C12 cells [2] (drug 1 nM) stood at 10; in the experiment on C2C12 cells [2] (drug 3 nM), 4; in the experiment on C2C12 cells [2] (drug 10 nM) it was 5; in the experiment with C2C12 cells [2] (drug 30 nM) it was 4; in the experiment with C2C12 cells [2] (drug 100 nM) it was 9; in the experiment on hUVEC cells (drug 1 nM), 1. Moreover, the “N/S: not significantly biased” value in the experiment on hUVEC cells (drug 3 nM) amounted to 5; with hUVEC cells (drug 10 nM), 10; with hUVEC cells (drug 30 nM), 4; in the experiment on hUVEC cells (drug 100 nM), 5. Moreover, in the experiment on C2C12 cells [2] (low concentrations of the actin treadmilling inhibitors), the “effect on chirality of C2C12 cells” value is reported as “reversed the chirality of C2C12 cells from CCW into CW”.
In the case of Laminin, in the experiment with C2C12 cells [1] (setting [5]), the “CCW: counter-clockwise alignment” value came to 34, the “CW: clockwise alignment” value was determined as 2 and the “N/S: not significantly biased” value is given as 2.
